Assay results reported in article PMC9120017, “Inhibition mechanism of the chloride channel TMEM16A by the pore blocker 1PBC” (Nature Communications, 2022).
Like-named read-outs stand apart in the source and are kept apart here.

Target: T1, mouse TMEM16A mutant R535A (Mus musculus, UniProt Q8BHY3, R535A)
T1 construct: expressed in transfected cells; host or cells: HEK293T
T1 sequence (Q8BHY3 1-960 R535A): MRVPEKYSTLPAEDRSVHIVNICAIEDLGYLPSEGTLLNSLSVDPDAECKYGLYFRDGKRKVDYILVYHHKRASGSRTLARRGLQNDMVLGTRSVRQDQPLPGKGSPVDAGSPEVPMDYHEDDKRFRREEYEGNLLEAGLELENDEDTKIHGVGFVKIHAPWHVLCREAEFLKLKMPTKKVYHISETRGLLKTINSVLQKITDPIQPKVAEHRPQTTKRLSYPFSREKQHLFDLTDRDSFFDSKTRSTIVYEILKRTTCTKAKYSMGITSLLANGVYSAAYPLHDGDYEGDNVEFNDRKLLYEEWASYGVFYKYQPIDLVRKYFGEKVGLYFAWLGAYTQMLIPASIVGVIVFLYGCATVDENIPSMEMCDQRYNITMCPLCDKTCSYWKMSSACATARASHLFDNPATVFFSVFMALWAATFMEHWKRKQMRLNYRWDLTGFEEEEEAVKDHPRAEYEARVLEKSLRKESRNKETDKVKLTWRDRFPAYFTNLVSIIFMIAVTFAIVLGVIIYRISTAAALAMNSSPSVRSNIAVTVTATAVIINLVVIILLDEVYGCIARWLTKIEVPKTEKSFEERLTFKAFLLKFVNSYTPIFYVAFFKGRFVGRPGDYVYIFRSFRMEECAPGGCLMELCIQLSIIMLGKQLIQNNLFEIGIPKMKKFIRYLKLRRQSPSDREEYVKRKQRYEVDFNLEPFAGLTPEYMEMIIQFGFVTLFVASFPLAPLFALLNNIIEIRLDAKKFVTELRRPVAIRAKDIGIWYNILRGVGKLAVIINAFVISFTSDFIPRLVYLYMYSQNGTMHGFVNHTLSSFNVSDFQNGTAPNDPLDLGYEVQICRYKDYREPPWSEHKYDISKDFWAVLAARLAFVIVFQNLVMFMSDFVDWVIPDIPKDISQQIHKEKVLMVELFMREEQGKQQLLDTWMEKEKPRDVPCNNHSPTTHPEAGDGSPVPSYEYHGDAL
Assay: Inside-out patch recording of 1PBC block, mutant R535A
Type: cell-based
Details: for remaining activity at 100 µM: 100 µM 1PBC
Method: HEK293T cells (ATCC CRL-1573) were maintained in Dulbecco’s modified Eagle’s medium (DMEM; Sigma-Aldrich) supplemented with 10 U ml^−1 penicillin, 0.1 mg ml^−1 streptomycin (Sigma-Aldrich), 2 mM L-glutamine (Sigma-Aldrich), and 10% FBS (Sigma-Aldrich) in a humidified atmosphere containing 5% CO2 at 37 °C. HEK293S GnTI^− cells (ATCC CRL-3022) were maintained in HyClone HyCell TransFx-H medium (GE Healthcare) supplemented with 10 U ml^−1 penicillin, 0.1 mg ml^−1 streptomycin, 4 mM L-glutamine, 0.15% poloxamer 188 (Sigma-Aldrich), and 1% FBS in an atmosphere containing 5% CO2 at 185 rpm at 37 °C. The ac splice variant of mouse TMEM16A (UniProt ID: Q8BHY3), mouse TMEM16B (UniProt ID: Q8CFW1), or mouse TMEM16F (UniProt ID: Q6P9J9) bearing a 3C cleavage site, a Venus YFP, a Myc tag, and a Streptavidin-binding peptide (SBP) downstream of the open reading frame in a modified pcDNA3.1 vector (Invitrogen) were used as described previously[21],[31]. Mutations were introduced using a modified QuikChange method[58] and were verified by sequencing.
HEK293T cells were transfected with 3–4 μg DNA per 6 cm Petri dish using the calcium phosphate co-precipitation method and were used within 24–96 h after transfection. Recordings were performed on inside-out patches excised from HEK293T cells expressing the construct of interest. Patch pipettes were pulled from borosilicate glass capillaries (O.D. 1.5 mm, I.D. 0.86 mm, Sutter Instrument) and were fire-polished with a microforge (Narishige) before use. Pipette resistance was typically 3–8 MΩ when filled with the recording solutions detailed below. Seal resistance was typically 4 GΩ or higher. Voltage-clamp recordings were made using Axopatch 200B, Digidata 1550, and Clampex 10.7 (Molecular Devices). Analog signals were filtered with the in-built 4-pole Bessel filter at 10 kHz and were digitized at 20 kHz. Solution exchange was achieved using a gravity-fed system through a theta glass pipette mounted on an ultra-fast piezo-driven stepper (Siskiyou). […] All recordings were performed at 20 °C.
A symmetrical ionic condition was used throughout. Stock solution with Ca^2+-EGTA contained 150 mM NaCl, 5.99 mM Ca(OH)2, 5 mM EGTA, and 10 mM HEPES at pH 7.40. Stock solution with EGTA contained 150 mM NaCl, 5 mM EGTA, and 10 mM HEPES at pH 7.40. Free Ca^2+ concentrations were adjusted by mixing the stock solutions at the required ratios calculated using the WEBMAXC program (http://web.stanford.edu/~cpatton/webmaxcS.htm). Patch pipettes were filled with the stock solution with Ca^2+-EGTA, which has a free Ca^2+ concentration of 1 mM. 1PBC (ChemBridge) stock was reconstituted in anhydrous DMSO (Sigma-Aldrich) at 100 mM and stored at −20 °C. Working solutions with 1PBC were prepared by serial dilution. Unless otherwise stated, experiments were performed at a saturating Ca^2+ concentration as shown in Supplementary Table 1 and the primary data were corrected for current rundown as described previously[21],[25].
Concentration-response relations, obtained from the ratio of the I-V plots before and after the application of the blocker, were fitted to the Hill equation,1 I/Imax=1/1+IC50/[blocker]^h where I/Imax is the normalized current responses, IC50 defines the concentration at which inhibition is at its half-maximum, and h is the Hill coefficient.

For `N#Cc1c(C(F)(F)F)cc(O)n2c1nc1ccccc12` [1PBC], the IC50 (0 mV, 2 µM Ca2+) was 11.9 µM, the remaining activity at 3 µM (3 µM 1PBC, +80 mV, saturating Ca2+ (2 µM), read-out: I/Imax) was 67.6% and the remaining activity at 3 µM (3 µM 1PBC, -80 mV, saturating Ca2+ (2 µM), read-out: I/Imax) was 91.3%. The remaining activity at 10 µM (10 µM 1PBC, +80 mV, saturating Ca2+ (2 µM), read-out: I/Imax) was 36.9%, the remaining activity at 10 µM (10 µM 1PBC, -80 mV, saturating Ca2+ (2 µM), read-out: I/Imax) was 70.8% and the remaining activity at 30 µM (30 µM 1PBC, +80 mV, saturating Ca2+ (2 µM), read-out: I/Imax) was 16.6%. For the same compound, the remaining activity at 30 µM (30 µM 1PBC, -80 mV, saturating Ca2+ (2 µM), read-out: I/Imax) was 46.3%, the remaining activity at 100 µM (+80 mV, saturating Ca2+ (2 µM), read-out: I/Imax) was 5.26% and the remaining activity at 100 µM (-80 mV, saturating Ca2+ (2 µM), read-out: I/Imax) was 21.3%. For the same compound, the remaining activity at 3 µM (1PBC 3, 0 mV, read-out: fraction of unblocked current) was 80.7%, the remaining activity at 3 µM (1PBC 3, 20 mV, read-out: fraction of unblocked current) was 76.3% and the remaining activity at 3 µM (1PBC 3, 40 mV, read-out: fraction of unblocked current) was 72.5%. The remaining activity at 3 µM (1PBC 3, 60 mV, read-out: fraction of unblocked current) was 69.3%, the remaining activity at 3 µM (1PBC 3, 80 mV, read-out: fraction of unblocked current) was 67.6% and the remaining activity at 3 µM (1PBC 3, 100 mV, read-out: fraction of unblocked current) was 65.8%. The remaining activity at 3 µM (1PBC 3, 120 mV, read-out: fraction of unblocked current) was 66%, the remaining activity at 3 µM (1PBC 3, 140 mV, read-out: fraction of unblocked current) was 66.6% and the remaining activity at 3 µM (1PBC 3, -20 mV, read-out: fraction of unblocked current) was 85.2%. The remaining activity at 3 µM (1PBC 3, -40 mV, read-out: fraction of unblocked current) was 87.7%, the remaining activity at 3 µM (1PBC 3, -60 mV, read-out: fraction of unblocked current) was 89.5% and the remaining activity at 3 µM (1PBC 3, -80 mV, read-out: fraction of unblocked current) was 91.3%. For the same compound, the remaining activity at 3 µM (1PBC 3, -100 mV, read-out: fraction of unblocked current) was 91.1%, the remaining activity at 3 µM (1PBC 3, -120 mV, read-out: fraction of unblocked current) was 92.2% and the remaining activity at 3 µM (1PBC 3, -140 mV, read-out: fraction of unblocked current) was 91.6%. The remaining activity at 10 µM (1PBC 10, 0 mV, read-out: fraction of unblocked current) was 53.9%, the remaining activity at 10 µM (1PBC 10, 20 mV, read-out: fraction of unblocked current) was 48.3% and the remaining activity at 10 µM (1PBC 10, 40 mV, read-out: fraction of unblocked current) was 43.7%. It also gave a remaining activity at 10 µM (1PBC 10, 60 mV, read-out: fraction of unblocked current) of 39.8%, a remaining activity at 10 µM (1PBC 10, 80 mV, read-out: fraction of unblocked current) of 36.9% and a remaining activity at 10 µM (1PBC 10, 100 mV, read-out: fraction of unblocked current) of 34.6%. For the same compound, the remaining activity at 10 µM (1PBC 10, 120 mV, read-out: fraction of unblocked current) was 34.7%, the remaining activity at 10 µM (1PBC 10, 140 mV, read-out: fraction of unblocked current) was 35.9% and the remaining activity at 10 µM (1PBC 10, -20 mV, read-out: fraction of unblocked current) was 59.6%. For the same compound, the remaining activity at 10 µM (1PBC 10, -40 mV, read-out: fraction of unblocked current) was 63.3%, the remaining activity at 10 µM (1PBC 10, -60 mV, read-out: fraction of unblocked current) was 67% and the remaining activity at 10 µM (1PBC 10, -80 mV, read-out: fraction of unblocked current) was 70.8%. The remaining activity at 10 µM (1PBC 10, -100 mV, read-out: fraction of unblocked current) was 73%, the remaining activity at 10 µM (1PBC 10, -120 mV, read-out: fraction of unblocked current) was 74.7% and the remaining activity at 10 µM (1PBC 10, -140 mV, read-out: fraction of unblocked current) was 75.4%. It also gave a remaining activity at 30 µM (1PBC 30, 0 mV, read-out: fraction of unblocked current) of 28.6%, a remaining activity at 30 µM (1PBC 30, 20 mV, read-out: fraction of unblocked current) of 24.4% and a remaining activity at 30 µM (1PBC 30, 40 mV, read-out: fraction of unblocked current) of 20.9%. It also gave a remaining activity at 30 µM (1PBC 30, 60 mV, read-out: fraction of unblocked current) of 18.1%, a remaining activity at 30 µM (1PBC 30, 80 mV, read-out: fraction of unblocked current) of 16.6% and a remaining activity at 30 µM (1PBC 30, 100 mV, read-out: fraction of unblocked current) of 15.4%. For the same compound, the remaining activity at 30 µM (1PBC 30, 120 mV, read-out: fraction of unblocked current) was 15.7%, the remaining activity at 30 µM (1PBC 30, 140 mV, read-out: fraction of unblocked current) was 16.3% and the remaining activity at 30 µM (1PBC 30, -20 mV, read-out: fraction of unblocked current) was 32.7%. For the same compound, the remaining activity at 30 µM (1PBC 30, -40 mV, read-out: fraction of unblocked current) was 36.9%.
